Source: patent publication US20200268702A1, “METHODS OF TREATING […]” (Amarin Pharmaceuticals Ireland Limited, priority 2013, published 2020)

Assay: Essential fatty acid parameters in plasma and RBC, 6-week AAMI study
Type: in vivo, human
Protocol: Blood samples (10 mL) were collected at Visit 1 (screening) and at Visits 4, 5 and 6. Analysis was performed by MSR Lipid Analysis, Scottish Crop Research Institute, Dundee, UK. The screening sample acted as baseline for the EFA measurements. Lipid was extracted from plasma, serum and RBC suspensions and converted into fatty acid methyl esters which were analyzed by gas chromatography to give fatty acid profiles as micrograms fatty acid per gram of sample (μgFA/g) and normalized area percent. RBC and plasma EFA data were collected at baseline, Day 14, 28 and 42 and summarized by visit for each treatment group. Change from baseline and percent change from baseline were also summarized. ANCOVA comparison of ethyl-EPA dose groups and ethyl-EPA versus placebo was performed.

CC/C=C\C/C=C\C/C=C\C/C=C\C/C=C\CCCC(=O)OCC [AMR101, ethyl eicosapentaenoate]
AA, Plasma, Mean (SD) change from Baseline (1 g daily, Day 14): −9.7 (22.20) μg/g
AA, RBC, Mean (SD) change from Baseline (1 g daily, Day 14): −8.1 (21.95) μg/g
DGLA, Plasma, mean (SD) change from Baseline (1 g daily, Day 14): −10.4 (10.90) μg/g
DGLA, RBC, mean (SD) change from Baseline (1 g daily, Day 14): −2.7 (3.82) μg/g
DHA, Plasma, Mean (SD) change from Baseline (1 g daily, Day 14): −6.4 (13.30) μg/g
DHA, RBC, Mean (SD) change from Baseline (1 g daily, Day 14): −4.6 (9.76) μg/g
AA, Plasma, Mean (SD) change from Baseline (1 g daily, Day 28): −11.3 (28.13) μg/g
AA, RBC, Mean (SD) change from Baseline (1 g daily, Day 28): −17.0 (20.69) μg/g
DGLA, Plasma, mean (SD) change from Baseline (1 g daily, Day 28): −10.6 (10.23) μg/g
DGLA, RBC, mean (SD) change from Baseline (1 g daily, Day 28): −3.8 (3.31) μg/g
DHA, Plasma, Mean (SD) change from Baseline (1 g daily, Day 28): −6.6 (15.53) μg/g
DHA, RBC, Mean (SD) change from Baseline (1 g daily, Day 28): −6.4 (11.57) μg/g
AA, Plasma, Mean (SD) change from Baseline (1 g daily, Day 42): −8.7 (31.35) μg/g
AA, RBC, Mean (SD) change from Baseline (1 g daily, Day 42): −14.2 (27.69) μg/g
DGLA, Plasma, mean (SD) change from Baseline (1 g daily, Day 42): −9.4 (9.41) μg/g
DGLA, RBC, mean (SD) change from Baseline (1 g daily, Day 42): −3.5 (4.51) μg/g
DHA, Plasma, Mean (SD) change from Baseline (1 g daily, Day 42): −5.4 (18.17) μg/g
DHA, RBC, Mean (SD) change from Baseline (1 g daily, Day 42): −7.0 (12.20) μg/g
EPA/AA, Plasma, mean (SD) change from Baseline (1 g daily, Day 42): 0.3
AA, Plasma, LS Mean, 1 g versus 4 g (1 g versus 4 g): 4.2 µg/g
AA, RBC, LS Mean, 1 g versus 4 g (1 g versus 4 g): 8.4 µg/g
DGLA, Plasma, LS mean, 1 g versus 4 g (1 g versus 4 g): 3.7 µg/g
DGLA, RBC, LS mean, 1 g versus 4 g (1 g versus 4 g): 1.5 µg/g
DHA, Plasma, LS mean, 1 g versus 4 g (1 g versus 4 g): -0.8 µg/g
DHA, RBC, LS mean, 1 g versus 4 g (1 g versus 4 g): 1.0 µg/g
AA, Plasma, Mean (SD) change from Baseline (2 g daily, Day 14): −13.9 (22.13) μg/g
AA, RBC, Mean (SD) change from Baseline (2 g daily, Day 14): −3.1 (25.84) μg/g
DGLA, Plasma, mean (SD) change from Baseline (2 g daily, Day 14): −14.1 (6.88) μg/g
DGLA, RBC, mean (SD) change from Baseline (2 g daily, Day 14): −2.6 (3.54) μg/g
DHA, Plasma, Mean (SD) change from Baseline (2 g daily, Day 14): −5.4 (14.29) μg/g
DHA, RBC, Mean (SD) change from Baseline (2 g daily, Day 14): −2.0 (9.46) μg/g
AA, Plasma, Mean (SD) change from Baseline (2 g daily, Day 28): 21.6 (28.32) μg/g
AA, RBC, Mean (SD) change from Baseline (2 g daily, Day 28): −14.1 (26.89) μg/g
DGLA, Plasma, mean (SD) change from Baseline (2 g daily, Day 28): −16.2 (9.88) μg/g
DGLA, RBC, mean (SD) change from Baseline (2 g daily, Day 28): −4.5 (3.58) μg/g
DHA, Plasma, Mean (SD) change from Baseline (2 g daily, Day 28): −8.1 (15.82) μg/g
DHA, RBC, Mean (SD) change from Baseline (2 g daily, Day 28): −6.2 (9.34) μg/g
AA, Plasma, Mean (SD) change from Baseline (2 g daily, Day 42): −27.3 (26.76) μg/g
AA, RBC, Mean (SD) change from Baseline (2 g daily, Day 42): −18.8 (25.62) μg/g
DGLA, Plasma, mean (SD) change from Baseline (2 g daily, Day 42): −17.3 (9.92) μg/g
DGLA, RBC, mean (SD) change from Baseline (2 g daily, Day 42): −5.3 (3.65) μg/g
DHA, Plasma, Mean (SD) change from Baseline (2 g daily, Day 42): −6.0 (16.69) μg/g
DHA, RBC, Mean (SD) change from Baseline (2 g daily, Day 42): −6.3 (9.42) μg/g
AA, Plasma, LS Mean, 2 g versus 4 g (2 g versus 4 g): 15.6 µg/g
AA, RBC, LS Mean, 2 g versus 4 g (2 g versus 4 g): 9.8 µg/g
DGLA, Plasma, LS mean, 2 g versus 4 g (2 g versus 4 g): 2.5 µg/g
DGLA, RBC, LS mean, 2 g versus 4 g (2 g versus 4 g): 1.5 µg/g
DHA, Plasma, LS mean, 2 g versus 4 g (2 g versus 4 g): 1.5 µg/g
DHA, RBC, LS mean, 2 g versus 4 g (2 g versus 4 g): 1.0 µg/g
AA, Plasma, Mean (SD) change from Baseline (4 g daily, Day 14): −27.2 (28.89) μg/g
AA, RBC, Mean (SD) change from Baseline (4 g daily, Day 14): −15.7 (26.76) μg/g
DGLA, Plasma, mean (SD) change from Baseline (4 g daily, Day 14): −22.9 (9.00) μg/g
DGLA, RBC, mean (SD) change from Baseline (4 g daily, Day 14): −5.3 (4.10) μg/g
DHA, Plasma, Mean (SD) change from Baseline (4 g daily, Day 14): −10.3 (13.35) μg/g
DHA, RBC, Mean (SD) change from Baseline (4 g daily, Day 14): −6.9 (9.13) μg/g
AA, Plasma, Mean (SD) change from Baseline (4 g daily, Day 28): −43.7 (32.24) μg/g
AA, RBC, Mean (SD) change from Baseline (4 g daily, Day 28): −22.8 (29.56) μg/g
DGLA, Plasma, mean (SD) change from Baseline (4 g daily, Day 28): −24.2 (10.73) μg/g
DGLA, RBC, mean (SD) change from Baseline (4 g daily, Day 28): −7.1 (4.63) μg/g
DHA, Plasma, Mean (SD) change from Baseline (4 g daily, Day 28): −13.5 (14.10) μg/g
DHA, RBC, Mean (SD) change from Baseline (4 g daily, Day 28): −8.7 (11.63) μg/g
AA, Plasma, Mean (SD) change from Baseline (4 g daily, Day 42): −48.3 (22.20) μg/g
AA, RBC, Mean (SD) change from Baseline (4 g daily, Day 42): −34.4 (31.44) μg/g
DGLA, Plasma, mean (SD) change from Baseline (4 g daily, Day 42): −22.5 (10.87) μg/g
DGLA, RBC, mean (SD) change from Baseline (4 g daily, Day 42): −8.0 (4.98) μg/g
DHA, Plasma, Mean (SD) change from Baseline (4 g daily, Day 42): −13.8 (15.31) μg/g
DHA, RBC, Mean (SD) change from Baseline (4 g daily, Day 42): −13.8 (13.76) μg/g
EPA, DPAn-3 and EPA/AA ratio values, change from baseline to Day 42 (plasma and RBC, 1, 2 and 4 g treatment groups): increased substantially
